Values quoted from earlier work in patent US8568704B2, “Dermatological/pharmaceutical compositions comprising benzoyl peroxide, at least one naphthoic acid compound and at least one polyurethane polymer” (Galderma Research & Development, priority 2006, dated 2013).
Read-outs that look alike come from different tables or passages of the source.

Assays:
[1] = in presence of benzoyl peroxide-based formulation
[2] = 40° C.

COc1ccc(-c2ccc3cc(C(=O)O)ccc3c2)cc1C12CC3CC(CC(C3)C1)C2 [adapalene, 6-[3-(1-adamantyl)-4-methoxyphenyl]-2-naphthoic acid]
degradation of adapalene ([1]; for 24 hours): no degradation

O=C(OOC(=O)c1ccccc1)c1ccccc1 [benzoyl peroxide]
benzoyl peroxide degradation time ([2]; in ethanol): 29 days
benzoyl peroxide degradation time ([2]; in propylene glycol): 53 days

CC1=C(/C=C/C(C)=C/C=C/C(C)=C/C(=O)O)C(C)(C)CCC1 [tretinoin]
tretinoin degraded ([1]; within 2 hours): 50%
tretinoin degraded ([1]; within 24 hours): 95%
